According to patent US12331042B2, “Compounds suitable for the treatment and prophylaxis of muscle wasting and other conditions” (priority 2019, dated 2025):
“Also recorded” adds a separate entry of the source.

Experiments:
[1] = tested on: monocrotaline (MCT)-treated C57BL/6 mice; assay: Pulmonary hypertension mouse model, test series 2; format: in vivo; conditions: MCT+compound (0.1 weight-% in chow) vs MCT, 8 weeks
Description: The test series 2 were performed analogous to test series 1. Briefly, Three groups of mice were included in this study: 1) saline-treated mice (sham; n=10); 2) monocrotaline (MCT)-treated mice fed with normal chow (MCT; n=10); and 3) MCT-treated mice fed with MuRF1 inhibitor chow (MCT+compound; n=10 for each compound). 8 weeks old C57BL/6 mice were subcutaneously injected weekly with either MCT (600 mg/kg) or a matched volume of saline for 8 weeks. The MCT+compound group started receiving the inhibitor chow 1 week prior to the MCT injections, whereas the sham and MCT groups were fed an identical chow but without the addition of the selected compound. The compound concentration in the chow was 0.1 weight-%, resulting in a daily compound intake per mouse of about 3 mg. Body weight was recorded every week for each mouse. Mice were sacrificed after 8 weeks treatment. At sacrifice, examination and tissue analysis were performed as described in test series 1.

ICR-DIO male mice = assay: Glucose and insulin regulation in DIO mice (fasting glucose, OGTT, ITT); format: in vivo
Source text: Analogously to example 2.7, diabetes was induced by a high-fructose high-fat diet (HFD) for 4 months in DIO mice. The mice developed increased fasting glucose and insulin resistance. Control group animals received a normal rodent diet (regular diet). Weight loss was then induced during a 30 days test period. In a first stage, the animals were fed normal rodent diet for 16 days. Then in a second stage the animals received a low-calory diet for 14 days. Two days after start of the first stage, the diet was supplemented with MyoMed-203 (at 1 g compound/1 kg food).
Test design: ICR-DIO male mice were randomly assigned to groups of 8-10 animals each. Three control groups were included: Control group of mice without obesity (control; regular diet (RD); n=10), obese mice fed with high-fructose high-fat diet during the entire study period (DIO HFD; n=8); and obese mice with initiated weight loss (DIO control; n=8).
Determining the level of blood glucose was performed after 6-hour fasting. An On Call Plus glucometer (Acon Laboratories, Inc., USA) and specific test strips (REF G133-111) were used for determination of glucose levels. Blood was obtained from the tail vein by incision of the tail tip. 5-6 μl of blood were used for each assay.
For oral glucose tolerance test (OGTT), mice were orally treated with glucose at dose of 2 g/kg at the dose volume of 10 ml/kg after a 6-hour fasting. Glucose measurements were performed immediately before treatment and at 15, 30, 60 and 120 min after glucose administration. The AUC describing the rate of blood glucose output in each mouse during the test was calculated using the formula: […]
For insulin tolerance test (ITT), mice were injected intraperitoneally with recombinant human insulin solution (Lilly, France; REF C620001K) at the dose of 0.75 or 0.60 IU/[…] of body weight in the volume of 5 ml/kg after 6-hour fasting. Glucose measurements were performed immediately before treatment and at 15, 30, 60 and 120 min after insulin administration. The results of the rate of blood glucose output were expressed as area under the curve (AUC).

MuRF1 E3 ligase activity = MuRF1 E3 ligase activity (Homo sapiens, UniProt Q969Q1); assay: Inhibition of MuRF1 E3 ligase activity (ubiquitination, Western blot); format: biochemical; conditions: 20-100 μmol/L compound, 1 h at 37° C., based on ubiquitination patterns
Description: Compounds were then assessed for effects on MuRF1 E3 ligase activity directed to titin or to MuRF1 itself (self-ubiquitination) by mixing 75 nmol/L UBE1 (Boston Biochem), 1 μmol/L UbcH5c (Boston Biochem), 100 μmol/L Ubiquitin, 4 mmol/L ATP, 100 nmol/L Titin A168-170 with 20-100 μmol/L of respective compounds. Reactions were started by addition of 220 nmol/L MuRF1, followed by 1 h at 37° C., SDS PAGE and Western blot analysis with MuRF1 and titin specific antibodies. All reactions also included 5% DMSO.

MuRF1 E3 ligase activity, sequence (Q969Q1 whole entry): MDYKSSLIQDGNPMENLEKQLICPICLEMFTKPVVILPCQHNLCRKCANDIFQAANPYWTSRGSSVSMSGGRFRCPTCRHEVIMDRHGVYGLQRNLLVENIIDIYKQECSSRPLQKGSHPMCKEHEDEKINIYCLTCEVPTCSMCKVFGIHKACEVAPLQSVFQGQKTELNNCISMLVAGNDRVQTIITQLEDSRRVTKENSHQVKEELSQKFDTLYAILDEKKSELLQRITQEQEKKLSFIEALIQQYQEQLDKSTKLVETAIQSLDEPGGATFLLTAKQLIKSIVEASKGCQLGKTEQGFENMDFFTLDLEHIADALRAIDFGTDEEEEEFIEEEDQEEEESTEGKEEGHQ

Row | SMILES | loss of skeletal muscle mass (EDL, TA wet weight; diaphragm maximum force) [1] | right ventricle hypertrophy [1] | blood glucose level after 6-hour fasting (ICR-DIO male mice; 1 g compound/1 kg food, vs DIO control, throughout the treatment period) | hypoglycemic effect according to OGTT (ICR-DIO male mice; after 14 days of weight loss and treatment) | blood glucose at 30 minutes of OGTT (ICR-DIO male mice; day 14, vs DIO control) | OGTT calculated area under the glucose elimination curve (ICR-DIO male mice; day 28) | glucose level at 120 min of OGTT (ICR-DIO male mice; day 28, vs all control groups) | glucose level at 120 minutes after insulin injection (ITT) (ICR-DIO male mice; vs all control groups) | inhibition of MuRF1 E3 ligase activity (MuRF1 E3 ligase activity)
1 | Cc1cc(=O)oc2cc(OCc3ccc(C(=O)OCC(=O)NC(=O)NCc4ccccn4)cc3)ccc12 [MyoMed-203, [2-oxo-2-(2-pyridylmethylcarbamoylamino)ethyl] 4-[(4-methyl-2-oxo-chromen-7-yl)oxymethyl]benzoate] | most pronounced effect | attenuated; also recorded: attenuate the development of right ventricle hypertrophy | significantly lower | mild hypoglycemic effect | tended to be lower | tended to be lower | significant decrease in the glucose level | significant decrease of glucose level | 
2 | Cc1cc(=O)oc2cc(OCc3ccc(C(=O)OC(C)C(=O)NC(N)=O)cc3)ccc12 (stereo not shown) [MyoMed-946-5, (1-methyl-2-oxo-2-ureido-ethyl) 4-[(4-methyl-2-oxo-chromen-7-yl)oxymethyl]benzoate] |  |  |  |  |  |  |  |  | significantly inhibit MuRF1 E3 ligase activity
3 | CNC(=O)NC(=O)C(C)OC(=O)c1ccc(COc2ccc3c(C)cc(=O)oc3c2)cc1 (stereo not shown) [MyoMed-946-8, [1-methyl-2-(methylcarbamoylamino)-2-oxo-ethyl] 4-[(4-methyl-2-oxo-chromen-7-yl)oxymethyl]benzoate] |  |  |  |  |  |  |  |  | significantly inhibit MuRF1 E3 ligase activity
